Results reported in PubChem BioAssay (NCI).
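Test compounds were applied to cells in 96-well plates for 48 hours at 5 doses. GI50 is the concentration that inhibits growth by half. At the TGI there is no net growth.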

Tests used:
Assay in all cases: NCI anticancer screen, dose series, 48 h
[1] = test system: HCC-2998 colon
[2] = test system: HOP-92 NSCLC
[3] = test system: SK-MEL-5 melanoma
[4] = test system: MCF7 breast
[5] = test system: SNB-19 CNS
[6] = test system: MALME-3M melanoma
[7] = test system: SW-620 colon
[8] = test system: HS 578T breast
[9] = test system: SF-268 CNS
[10] = test system: OVCAR-5 ovarian

SMILES	TGI [1] [µM]	TGI [2] [µM]	TGI [3] [µM]	TGI [4] [µM]	TGI [5] [µM]	TGI [6] [µM]	TGI [7] [µM]	TGI [8] [µM]	TGI [9] [µM]	TGI [10] [µM]	GI50 [1] [µM]	GI50 [2] [µM]	GI50 [3] [µM]	GI50 [4] [µM]	GI50 [5] [µM]	GI50 [6] [µM]	GI50 [7] [µM]	GI50 [8] [µM]	GI50 [9] [µM]	GI50 [10] [µM]
O=C(c1cccs1)N(C(=S)OC12CC3CC(CC(C3)C1)C2)c1ccccc1	> 100	> 100	55.8	> 100	> 100	> 100	> 100	> 100	> 100	> 100										
COC(=O)c1sc(=S)sc1SCc1ccc(CSc2sc(=S)sc2C(=O)OC)cc1	> 100	> 100	> 100	> 100	> 100	> 100	> 100	> 100	> 100	> 100										
CC1=CC(=O)c2ccccc2C1=O	30.7	2.94	5.92	23.8	33.5	10.9	4.82	41.4	22.2	26.7										
O=C(C[n+]1ccc2ccccc2c1)c1ccc2ccc3ccccc3c2c1	3.37	18.8	14.4	11.3	18.7	22.2	13.1	35.2	19.9	19.8										
COc1ccc(CC(=O)N2CCC3(C)CC(=O)CC=C23)cc1OC (centres undefined)		> 100	> 100	> 100	> 100	> 100	> 100	> 100	> 100	> 100										
CC12CC3OC(=O)C1COC14OC5(C2C1=O)C(O)(CCC1C4CC(O)C2(O)CC=CC(=O)C12C)C(=O)OC35C (centres undefined)	> 100	> 100	> 100	> 100	> 100	> 100	> 100	> 100	> 100	> 100										
CNc1ccc2c(c1)[C@@]1(C)c3ccccc3[C@@H](C2)N1C	44.5	74.4	32	> 100	> 100	82.1	> 100	> 100	> 100	86.2										
C=CCc1cccc2cc(C(=O)Nc3ccccc3)c(=N)oc12	18.4	> 100	> 100	> 100	> 100	58.7	> 100	> 100	> 100	> 100										
COc1ccc(C(=O)/C=C/c2cccc([N+](=O)[O-])c2)c(OC)c1	> 50	> 50	> 50	> 50	4.37	> 50	2.54	> 50	> 50	> 50	2.27	3.92	2.37	1.37	1.46	3.56	1.2	3.85	1.62	1.56
COc1ccc2c(c1)[nH]c1c(/C=C/c3ccccc3)nccc12	29.9	44.4	36.6	41.6	38.5	31.5	91.9	45.3	36.7	30.5										
CC1=NN(c2cccc(Cl)c2)C2(SCC(=O)N2c2nc3ccccc3s2)/C1=C\c1cccs1 (centres undefined)	37.1	53.6	36.7	> 100			> 100	59	44	56.7										
CCn1c(-c2ccc(N=NNc3ccc(-c4n[nH]c(=S)n4CC)cc3)cc2)n[nH]c1=S		7.71	3.48	29.2	9.53	7.75	> 100	> 100	17.2											
CC(=O)C1=C(C)N(c2ccc(C)cc2)C2(O)C=CC(=O)C3C(=O)N(c4ccccc4)C(=O)C132 (centres undefined)	52.3	43.1	34	53.7	65.6	46.6	22.7	> 100	> 100	> 100										
CNC(=O)OCc1c(CO)nc(SC)n1C	> 100	> 100	> 100	> 100	> 100	> 100	> 100		> 100	> 100										
[N-]=[N+]=CC(=O)c1ccccc1C#CCCc1ccccc1	> 100	63.6	32.2		> 100	79.1	> 100			> 100										
NC(=O)c1cc2ccc(O)cc2oc1=Nc1ccccc1	78.8	> 100	69	> 100	> 100	> 100	> 100	> 100	> 100	> 100										
CCC1CN(C(=O)c2ccccc2)C(Cc2c[nH]c3ccccc23)C(=O)C1CC(=O)OC (centres undefined)		> 100	> 100	> 100		> 100	> 100	> 100	> 100	> 100										
NCCCCc1cc(O)c2c(c1O)C(=O)c1ccccc1C2=O	28	31.1	28.3	27.4	29.2	30	> 44.2		29.9	28.5										
CCCNC(=O)CCC(C)C1CCC2C3C(C[C@H](OC(C)=O)[C@]12C)[C@@]1(C)CCC2(C[C@H]1C[C@H]3OC(C)=O)OOC1(CC[C@]3(C)C4C[C@H](OC(C)=O)[C@]5(C)C(C(C)CCC(=O)NCCC)CCC5C4[C@H](OC(C)=O)C[C@@H]3C1)OO2 (some centres undefined)	> 100	> 68.4	> 100	> 100	> 100	> 100	> 100	98.2	> 100	> 100		7.51								
C[C@H](NC(=O)c1ccc(CNC(=O)/C=C/c2cccc(Oc3ccccc3)c2)cc1)c1ccccc1	> 100	> 100	> 100	> 100	> 100	> 100	> 100	> 100	> 100	> 100										
